From patent US20250250230A1, “HETEROCYCLIC COMPOUND” (TAKEDA PHARMACEUTICAL COMPANY LIMITED, priority 2022, published 2025)

Target: T1, human orexin type 2 receptor (Homo sapiens, UniProt O43614)
T1 construct: expressed in transfected cells
T1 sequence (O43614 1-444): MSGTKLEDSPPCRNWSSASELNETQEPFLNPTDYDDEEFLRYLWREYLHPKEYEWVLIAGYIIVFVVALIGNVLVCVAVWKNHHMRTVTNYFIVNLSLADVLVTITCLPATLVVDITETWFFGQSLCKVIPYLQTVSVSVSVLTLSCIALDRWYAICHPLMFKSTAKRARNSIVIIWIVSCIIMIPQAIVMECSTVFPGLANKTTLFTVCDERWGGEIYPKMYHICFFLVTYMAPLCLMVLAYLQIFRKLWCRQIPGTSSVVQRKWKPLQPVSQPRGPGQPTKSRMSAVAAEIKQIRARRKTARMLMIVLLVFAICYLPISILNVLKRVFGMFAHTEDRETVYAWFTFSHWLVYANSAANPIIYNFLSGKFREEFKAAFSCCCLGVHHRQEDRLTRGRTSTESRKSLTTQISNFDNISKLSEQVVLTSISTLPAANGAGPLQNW
Assay: Measurement of orexin type 2 receptor agonist activity (calcium fluorescence, Fluo-4 AM, FDSS)
Assay type: cell-based
Conditions: test compound 3 μM; CHO cells expressing human OX2 receptor; DMSO = 0%, orexin A (human) = 100%
In short: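 Agonist response scaled between vehicle (0%) and human orexin A at 10 nM final (100%), from 2-min kinetic Fluo-4 fluorescence reads. Stable hOX2R CHO-K1 clone, dye-loaded in HBSS/20 mM HEPES/0.1% BSA with 1.25 mM probenecid before compound addition.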

Point of comparison: `CNS(=O)(=O)NC[C@@H]1[C@H](F)CN1C(=O)C1(COC)CC1c1ccc(F)cc1-c1c(F)cccc1F` (stereo partly drawn) [Example 438, N-({(2R,3R)-3-fluoro-1-[(1R,2S)-1-(methoxymethyl)-2-(2′,5,6′-trifluoro[1,1′-biphenyl]-2-yl)cyclopropane-1-carbonyl]azetidin-2-yl}methyl)-N′-methylsulfuric diamide, or N-({(2R,3R)-3-fluoro-1-[(1S,2R)-1-(methoxymethyl)-2-(2′,5,6′-trifluoro[1,1′-biphenyl]-2-yl)cyclopropane-1-carbonyl]azetidin-2-yl}methyl)-N′-methylsulfuric diamide], “OX2R agonist activity (3 μM, %)” value 101%. Against it:
- O=C([C@@H]1C[C@@]1(F)c1ccc(F)cc1-c1c(F)cccc1F)N1C[C@@H](F)[C@H]1CNS(=O)(=O)CBr [Example 431, 1-bromo-N-({(2R,3R)-3-fluoro-1-[(1S,2S)-2-fluoro-2-(2′,5,6′-trifluoro[1,1′-biphenyl]-2-yl)cyclopropane-1-carbonyl]azetidin-2-yl}methyl)methanesulfonamide] — lower, 95%
- CCCS(=O)(=O)NC[C@@H]1[C@H](F)CN1C(=O)[C@@H]1C[C@@]1(F)c1ccc(F)cc1-c1c(F)cccc1F [Example 433, N-({(2R,3R)-3-fluoro-1-[(1S,2S)-2-fluoro-2-(2′,5,6′-trifluoro[1,1′-biphenyl]-2-yl)cyclopropane-1-carbonyl]azetidin-2-yl}methyl)propane-1-sulfonamide] — lower, 95%
- CS(=O)(=O)NC[C@@H]1CCN1C(=O)C1(CO)CC1c1ccc(F)cc1-c1c(F)cccc1F (stereo partly drawn) [Example 434, N-({(2S)-1-[(1R,2S)-1-(hydroxymethyl)-2-(2′,5,6′-trifluoro[1,1′-biphenyl]-2-yl)cyclopropane-1-carbonyl]azetidin-2-yl}methyl)methanesulfonamide, or N-({(2S)-1-[(1S,2R)-1-(hydroxymethyl)-2-(2′,5,6′-trifluoro[1,1′-biphenyl]-2-yl)cyclopropane-1-carbonyl]azetidin-2-yl}methyl)methanesulfonamide] — lower, 96%
- COCC1(C(=O)N2CC[C@H]2CNS(C)(=O)=O)CC1c1ccc(F)cc1-c1c(F)cccc1F (stereo partly drawn) [Example 435, N-({(2S)-1-[(1R,2S)-1-(methoxymethyl)-2-(2′,5,6′-trifluoro[1,1′-biphenyl]-2-yl)cyclopropane-1-carbonyl]azetidin-2-yl}methyl)methanesulfonamide, or N-({(2S)-1-[(1S,2R)-1-(methoxymethyl)-2-(2′,5,6′-trifluoro[1,1′-biphenyl]-2-yl)cyclopropane-1-carbonyl]azetidin-2-yl}methyl)methanesulfonamide] — the same, 101%
- COCC1(C(=O)N2C[C@@H](F)[C@H]2CNS(C)(=O)=O)CC1c1ccc(F)cc1-c1c(F)cccc1F (stereo partly drawn) [Example 436, N-({(2R,3R)-3-fluoro-1-[(1R,2S)-1-(methoxymethyl)-2-(2′,5,6′-trifluoro[1,1′-biphenyl]-2-yl)cyclopropane-1-carbonyl]azetidin-2-yl}methyl)methanesulfonamide, or N-({(2R,3R)-3-fluoro-1-[(1S,2R)-1-(methoxymethyl)-2-(2′,5,6′-trifluoro[1,1′-biphenyl]-2-yl)cyclopropane-1-carbonyl]azetidin-2-yl}methyl)methanesulfonamide] — lower, 99%
- CCS(=O)(=O)NC[C@@H]1[C@H](F)CN1C(=O)C1(COC)CC1c1ccc(F)cc1-c1c(F)cccc1F (stereo partly drawn) [Example 437, N-({(2R,3R)-3-fluoro-1-[(1R,2S)-1-(methoxymethyl)-2-(2′,5,6′-trifluoro[1,1′-biphenyl]-2-yl)cyclopropane-1-carbonyl]azetidin-2-yl}methyl)ethanesulfonamide, or N-({(2R,3R)-3-fluoro-1-[(1S,2R)-1-(methoxymethyl)-2-(2′,5,6′-trifluoro[1,1′-biphenyl]-2-yl)cyclopropane-1-carbonyl]azetidin-2-yl}methyl)ethanesulfonamide] — lower, 99%
